Our source for the Activity values is ChEMBL document CHEMBL1152129, “Quantitative structure-activity relationship and complex network approach to monoamine oxidase A and B inhibitors” (J Med Chem, 2008).

SMILES strings stand for the structures.

The target in the first data set is T1, Amine oxidase [flavin-containing] A (Homo sapiens, UniProt P21397).
T1 sequence (P21397 whole entry): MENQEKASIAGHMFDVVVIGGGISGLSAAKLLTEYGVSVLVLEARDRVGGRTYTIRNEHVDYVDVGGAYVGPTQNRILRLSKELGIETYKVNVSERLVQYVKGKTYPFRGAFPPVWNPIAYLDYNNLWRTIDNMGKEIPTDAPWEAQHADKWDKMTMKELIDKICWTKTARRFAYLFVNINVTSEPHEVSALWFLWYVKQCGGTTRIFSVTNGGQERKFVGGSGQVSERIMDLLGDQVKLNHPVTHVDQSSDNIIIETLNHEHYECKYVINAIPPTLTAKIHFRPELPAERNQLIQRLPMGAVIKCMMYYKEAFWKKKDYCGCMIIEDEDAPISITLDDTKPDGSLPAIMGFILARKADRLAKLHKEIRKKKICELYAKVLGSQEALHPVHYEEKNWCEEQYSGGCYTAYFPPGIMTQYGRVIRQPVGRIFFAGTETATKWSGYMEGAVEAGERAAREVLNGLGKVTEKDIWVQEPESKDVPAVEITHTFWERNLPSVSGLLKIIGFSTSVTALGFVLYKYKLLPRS
As to the kind of experiment: Inhibition of human recombinant MAOA by fluorimetric method. To be noted: human.
As for `CO[C@@]12[C@H](COC(N)=O)C3=C(C(=O)C(C)=C(N)C3=O)N1C[C@H]1[C@@H]2N1c1ccc(O)cc1`, the Activity entry is reported as “Not Active”. The same measure, in the same setting: in the case of `CC(c1cnc2nc(N)nc(N)c2n1)N(C)c1ccc(C(=O)N[C@@H](CCC(=O)O)C(=O)O)cc1` (some centres not stated) [ADENOPTERIN] it was “Not Active”; in that of `CC(=O)Nc1ccc(/C=N/NC(N)=S)cc1` [AMITHIOZONE], “Not Active”. Same read-out and setting: with `CCOC(=O)[C@H](Cc1ccc(O)cc1)NC(=O)[C@H](Cc1ccc(N(CCCl)CCCl)cc1)NC(C)=O` [ASDOPHAN] the entry was “Not Active”; with `CC(=O)OC1C=CC(=O)OC1C1OC1C` (configuration not stated) [ASPERLIN], “Not Active”. Same read-out and setting: in the case of `O=C(O)c1ccc(NC2OC[C@@H](O)[C@H](O)[C@H]2O)cc1` (some centres not stated) [BENAXIBINE] it was “Not Active”; in that of `C=CC(=O)NCNC(=O)CCBr` [BROMACRYLIDE], “Not Active”; in that of `C[C@H]1CC2=CC(=O)CC[C@]2(C)[C@H]2CC[C@@]3(C)[C@@H](CC[C@]3(C)O)[C@H]12` [CALUSTERONE], “Not Active”. For `Cc1nnc(SCC2=C(C(=O)O)N3C(=O)[C@@H](NC(=O)Cn4cnnn4)[C@H]3SC2)s1` [CEFAZOLIN], the Activity result is recorded as “Not Active”. Turning to `C=CC1=C(C(=O)O)N2C(=O)[C@@H](NC(=O)/C(=N\OCC(=O)O)c3csc(N)n3)[C@H]2SC1` [CEFIXIME], the Activity entry is reported as “Not Active”. Consider `COC1=C(C)C(=O)C2=C(C1=O)[C@@H](CO)N1[C@H]3[C@H]4[C@@H](C[C@H]([C@H]1C#N)N4C)[C@@H]1OCCN1[C@@H]23` [CYANOCYCLINE A], for which the Activity entry is “Not Active”. For `C[C@@H]1C[C@@H]([C@H](O)CC2CC(=O)NC(=O)C2)C(=O)[C@@H](C)C1` [CYCLOHEXIMIDE], the Activity entry is “Not Active”. On the same count and under the same terms, in the case of `COc1cccc2c1C(=O)c1c(O)c3c(c(O)c1C2=O)C[C@@](O)(C(=O)CO)C[C@@H]3O[C@H]1C[C@H](N)[C@H](O)[C@H](C)O1` [DOXORUBICIN] it was “Not Active”; in that of `O=NN(CCCl)C(=O)NCCO` [ELMUSTINE], “Not Active”; in that of `CCc1nc(N)nc(N)c1-c1ccc(Cl)c(Cl)c1` [ETOPRINE], “Not Active”.

On to `CCOC(=O)/C=C1\SC(N2CCCCC2)C(=O)N1C` (configuration not stated) [ETOZOLIN], for which the Activity entry is listed as “Not Active”. On the same count and under the same terms, in the case of `O=C(NP(=O)(N1CC1)N1CC1)c1ccc(F)cc1` [FLUORBENZOTEF] it was “Not Active”; in that of `Cc1ccc(S(=O)(=O)NC(=O)N[C@H]2[C@H]3CC[C@@](C)([C@H]2O)C3(C)C)cc1` [GLIBORNURIDE], “Not Active”.

Turning to `COc1ccc(Cl)cc1C(=O)NCCc1ccc(S(=O)(=O)NC(=O)NC2CCCCC2)cc1` [GLYBURIDE], the Activity result was “Not Active”. `NC(=O)NO` [HYDROXYUREA]: the Activity result was “Not Active”. Same read-out and setting: in the case of `CNCCc1ccc(OC(=O)C(C)C)c(OC(=O)C(C)C)c1` [IBOPAMINE] it was “Not Active”; in that of `CC(C)Cc1ccc(C(C)C(=O)O)cc1` (configuration not stated) [IBUPROFEN], “Not Active”; in that of `CC(CCc1ccccc1)NCC(O)c1ccc(O)c(C(N)=O)c1` (configuration not stated) [LABETALOL], “Not Active”. Consider `OC[C@@H](O)[C@@H](O)[C@H](O)[C@H](O)CO` [MANNITOL], for which the Activity entry is listed as “Not Active”. Consider `Cc1cc(Cl)ccc1OCC(=O)O` [METAXON], for which the Activity entry is “Not Active”. Turning to `O[C@@H]([C@H](O)[C@H](O)CBr)[C@H](O)CBr` [MITOBRONITOL], the Activity entry was “Not Active”.

`CC(/C=N/NC(=N)N)=N\NC(=N)N` [MITOGUAZONE]: the Activity result is recorded as “Not Active”. Still for that read-out and setting: in the case of `COCCOC(=O)C1=C(C)NC(C)=C(C(=O)OC(C)C)C1c1cccc([N+](=O)[O-])c1` (configuration not stated) [NIMODIPINE] it was “Not Active”; in that of `CCC1(c2ccccc2)C(=O)NC(=O)NC1=O` [PHENOBARBITAL], “Not Active”; in that of `COc1cc(NC(C)CCCN)c2ncccc2c1` (configuration not stated) [PRIMAQUINE], “Not Active”. Still for that read-out and setting: with `CCC1(c2ccccc2)C(=O)NCNC1=O` [PRIMIDONE] the entry was “Not Active”. The same measure, in the same setting: in the case of `CC1=C(/C=C/C(C)=C/C=C/C(C)=C/CO)C(C)(C)CCC1` [RETINOL] it was “Not Active”; in that of `CCCCCCCCCCCCCCCC(=O)N(CCCCN(C)C)CCCCN(C)C` [SOLAPALMITINE], “Not Active”; in that of `Cc1noc(NS(=O)(=O)c2ccc(N)cc2)c1C` [SULFISOXAZOLE], “Not Active”.

As for `OC[C@H]1O[C@@H](n2cnc3c(S)ncnc32)[C@H](O)[C@@H]1O` [THIOINOSINE], the Activity result is “Not Active”.

With `N#CC(O[C@@H]1O[C@H](CO[C@@H]2O[C@H](CO)[C@@H](O)[C@H](O)[C@H]2O)[C@@H](O)[C@H](O)[C@H]1O)c1ccccc1` (some centres not stated) [VITAMIN B17], the Activity result is “Not Active”.

The target of a further data set is T2, Amine oxidase [flavin-containing] B (Homo sapiens, UniProt P27338).
T2 sequence (P27338 whole entry): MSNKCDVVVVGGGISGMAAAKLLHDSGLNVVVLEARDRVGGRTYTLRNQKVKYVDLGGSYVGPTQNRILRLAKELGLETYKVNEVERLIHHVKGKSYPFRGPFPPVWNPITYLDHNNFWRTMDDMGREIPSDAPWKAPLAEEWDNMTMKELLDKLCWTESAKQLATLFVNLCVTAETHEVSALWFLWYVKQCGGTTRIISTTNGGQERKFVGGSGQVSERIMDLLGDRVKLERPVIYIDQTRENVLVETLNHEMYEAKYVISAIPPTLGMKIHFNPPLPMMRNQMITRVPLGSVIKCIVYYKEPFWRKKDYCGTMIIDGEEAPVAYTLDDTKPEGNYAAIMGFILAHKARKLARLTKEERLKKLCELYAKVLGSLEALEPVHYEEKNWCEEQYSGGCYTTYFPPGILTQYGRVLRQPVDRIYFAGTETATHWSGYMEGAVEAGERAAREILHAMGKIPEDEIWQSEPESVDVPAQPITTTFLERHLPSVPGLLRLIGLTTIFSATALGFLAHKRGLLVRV
Description: Inhibition of human liver MAOB. Further: test concentration or dose not given here.
Conditions: not given; call rule not given here
Regarding `OC1CCCCC1N1CCC(c2ccccc2)CC1` (configuration not stated), the Activity entry is listed as “Not Active”. The same measure, in the same setting: in the case of `CCOC(N)=O` it was “Not Active”; in that of `N[C@@H]1C[C@H]1c1ccccc1.N[C@H]1C[C@@H]1c1ccccc1` (racemic) [TRANYLCYPROMINE], “Not Active”. In the case of `CC(=O)Nc1nnc(S(N)(=O)=O)s1` [ACETAZOLAMIDE], the Activity result is recorded as “Not Active”. Same read-out and setting: with `O=C1c2ccccc2C(=O)c2c(NCCNCCO)ccc(NCCNCCO)c21` [AMETANTRONE] the entry was “Not Active”; with `CCOC(=O)OC(C)OC(=O)[C@@H]1N2C(=O)[C@@H](NC(=O)[C@H](N)c3ccccc3)[C@H]2SC1(C)C` (some centres not stated) [BACAMPICILLIN], “Not Active”. The same measure, in the same setting: in the case of `C[C@H](N)C(=O)N[C@@H]1[C@H]2C(=C(O)C[C@@H](O)[C@@H]2O)C(=O)O[C@]1(C)C(Cl)Cl` [BACTOBOLIN] it was “Not Active”; in that of `CC(=O)OCC(=O)[C@@]12N=C(C)O[C@@H]1C[C@H]1[C@@H]3CCC4=CC(=O)C=C[C@]4(C)[C@H]3[C@@H](O)C[C@@]12C` [DEFLAZACORT], “Not Active”; in that of `CCCCNc1ccc(C(=O)OCCN(C)C)cc1` [TETRACAINE], “Not Active”.

The target in the next data set is T1, Amine oxidase [flavin-containing] A. Description: Inhibition of human liver MAOA. Further: test concentration or dose not given here.
Conditions: not given
Regarding `OC1CCCCC1N1CCC(c2ccccc2)CC1` (configuration not stated), the Activity entry is reported as “Not Active”. As to `CCOC(N)=O`, the Activity result is on record as “Not Active”. Still for that read-out and setting: in the case of `Cn1cc(I)ccc1=O` it was “Not Active”. As for `N[C@@H]1C[C@H]1c1ccccc1.N[C@H]1C[C@@H]1c1ccccc1` (racemic) [TRANYLCYPROMINE], the Activity entry is recorded as “Not Active”. The same measure, in the same setting: with `CC(=O)Nc1nnc(S(N)(=O)=O)s1` [ACETAZOLAMIDE] the entry was “Not Active”. The same measure, in the same setting: with `O=C1c2ccccc2C(=O)c2c(NCCNCCO)ccc(NCCNCCO)c21` [AMETANTRONE] the entry was “Not Active”; with `C=CCC(C(=O)NC(N)=O)C(C)C` (configuration not stated) [APRONAL], “Not Active”. Same read-out and setting: in the case of `CCOC(=O)OC(C)OC(=O)[C@@H]1N2C(=O)[C@@H](NC(=O)[C@H](N)c3ccccc3)[C@H]2SC1(C)C` (some centres not stated) [BACAMPICILLIN] it was “Not Active”; in that of `C[C@H](N)C(=O)N[C@@H]1[C@H]2C(=C(O)C[C@@H](O)[C@@H]2O)C(=O)O[C@]1(C)C(Cl)Cl` [BACTOBOLIN], “Not Active”. Consider `O=C(O)CCCCSc1[nH]cnc2ncnc1-2` [BUTHIOPURINE], for which the Activity entry was “Not Active”. On the same count and under the same terms, in the case of `CC(=O)OCC(=O)[C@@]12N=C(C)O[C@@H]1C[C@H]1[C@@H]3CCC4=CC(=O)C=C[C@]4(C)[C@H]3[C@@H](O)C[C@@]12C` [DEFLAZACORT] it was “Not Active”; in that of `COc1cc2c(cc1O)N=C[C@@H]1CC[C@H](O)N1C2=O` [NEOTHRAMYCIN A], “Not Active”. On the same count and under the same terms, in the case of `O=c1[nH]nc(-c2ccncc2)o1` [NEOVADRINE] it was “Not Active”; in that of `CN(C)[C@@H]1C(O)=C(C(N)=O)C(=O)[C@@]2(O)C(O)=C3C(=O)c4c(O)cccc4[C@@](C)(O)[C@H]3[C@H](O)[C@@H]12` [OXYTETRACYCLINE], “Not Active”; in that of `CC[C@H](C)[C@@H]1NC(=O)[C@H](Cc2ccc(O)cc2)NC(=O)[C@@H](N)CSSC[C@@H](C(=O)N2CCC[C@H]2C(=O)N[C@@H](CC(C)C)C(=O)NCC(N)=O)NC(=O)[C@H](CC(N)=O)NC(=O)[C@H](CCC(N)=O)NC1=O` [OXYTOCIN], “Not Active”.

As to `CCOc1ccc(NC(C)=O)cc1.Cl` [PHENACETIN CHLORIDE], the Activity result was “Not Active”.

Turning to `CN1C(CSCC(F)(F)F)Nc2cc(Cl)c(S(N)(=O)=O)cc2S1(=O)=O` (configuration not stated) [POLYTHIAZIDE], the Activity result is listed as “Not Active”. On the same count and under the same terms, in the case of `Nc1nc(=O)c2nc(CNc3ccc(C(=O)NC(CCC(=O)NC(CCC(=O)NC(CCC(=O)O)C(=O)O)C(=O)O)C(=O)O)cc3)cnc2[nH]1` (configuration not stated) [PTEROPTERIN] it was “Not Active”. The same measure, in the same setting: in the case of `CCCCC1=C2N=C(N)N[C@H]3CC[C@@H](C[C@@H]1C)[C@@H]23` [PTILOCAULINE] it was “Not Active”. The same measure, in the same setting: in the case of `Nc1ccc(S(=O)(=O)Nc2ncccn2)cc1` [SULFADIAZINE] it was “Not Active”; in that of `[H]/N=C(/N)NS(=O)(=O)c1ccc(N)cc1` [SULFAGUANIDINE], “Not Active”. With `CCCCNc1ccc(C(=O)OCCN(C)C)cc1` [TETRACAINE], the Activity entry is reported as “Not Active”.
